Values of other authors as cited in patent US12509559B2, “Bacterial beta-lactamase responsive hydrogels” (Brown University, priority 2019, dated 2025).

Details: adamantane in β-cyclodextrin cavity

C1C2CC3CC1CC(C2)C3 [adamantane]
association constant, K: ~10^5 M^−1
